Source: patent US10597388B2, “Pyridazinone herbicides” (FMC CORPORATION, priority 2014, dated 2020)

Legend:
Format in all cases: in vivo
[1] = tested on: barnyardgrass (Echinochloa crus-galli); assay: Test A greenhouse herbicide test, pre- and postemergence
Method in brief: (§1)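 Seeds in loam–sand blend received a preemergence directed soil spray; plants at 2–10 cm, one- to two-leaf stage, received postemergence sprays. Compounds in a non-phytotoxic solvent with surfactant. After about 10 d in a greenhouse, injury rated visually versus untreated controls on a 0–100 scale (100 = complete control).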

kochia (Kochia scoparia) = assay: as above
Method in brief: as §1

[2] = tested on: wheat (winter wheat, Triticum aestivum); assay: Test C greenhouse herbicide test, pre- and postemergence
Method in brief: (§2)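 Pre- and postemergence greenhouse screen; values are visual control ratings, 0 meaning no effect and 100 complete kill, assigned relative to untreated plants after 13 to 15 d.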

[3] = tested on: waterhemp (common waterhemp, Amaranthus rudis); assay: as above
Method in brief: as §2

[4] = tested on: morningglory (Ipomoea coccinea); assay: as above
Method in brief: as §2

corn (Zea mays) = assay: as above
Method in brief: as §2

[5] = tested on: oilseed rape (Brassica napus); assay: as above
Method in brief: as §2

[6] = tested on: foxtail, giant (giant foxtail, Setaria faberii); assay: as above
Method in brief: as §2

[7] = tested on: crabgrass, large (large crabgrass, Digitaria sanguinalis); assay: as above
Method in brief: as §2

[8] = tested on: lambsquarters (Chenopodium album); assay: as above
Method in brief: as §2

[9] = tested on: johnsongrass (Sorghum halepense); assay: as above
Method in brief: as §2

[10] = Postemergence, 125 g ai/ha, visual rating after approx. 10 d, 0 to 100 scale (0 no effect, 100 complete control)
[11] = Postemergence, 500 g ai/ha, 0 to 100 scale, 0 is no effect, 100 is complete control
[12] = Preemergence, 125 g ai/ha, 0 to 100 scale where 0 is no effect and 100 is complete control
[13] = Preemergence, 500 g ai/ha, 0 to 100 scale, 0 no effect, 100 complete control
[14] = Postemergence, 31 g ai/ha, 0 to 100 scale (0 no effect, 100 complete control)
[15] = Postemergence, 125 g ai/ha, scale 0 to 100, 0 is no effect, 100 is complete control
[16] = Postemergence, 250 g ai/ha, scale 0 to 100, 0 no effect, 100 complete control, 13 to 15 d
[17] = Preemergence, 62 g ai/ha, scale 0 to 100, 0 is no effect, 100 is complete control
[18] = Preemergence, 125 g ai/ha, scale 0 to 100, 0 is no effect, 100 is complete control
[19] = Preemergence, 250 g ai/ha, scale 0 to 100, 0 no effect, 100 complete control
[20] = postemergence, 62 g ai/ha, scale 0 to 100, 0 no effect, 100 complete control
[21] = Preemergence, 31 g ai/ha, scale 0 to 100, 0 is no effect, 100 is complete control
[22] = Postemergence, 125 g ai/ha, 0 to 100 scale where 0 is no effect and 100 is complete control
[23] = Postemergence, 500 g ai/ha, visual rating after approx. 10 d, 0 to 100 scale (0 no effect, 100 complete control)
[24] = Preemergence, 500 g ai/ha, 0 to 100 scale where 0 is no effect and 100 is complete control

Cc1ccc2ccccc2c1-c1c(O)c(Br)nn(C)c1=O [Compound 23]
10: Wheat plant response rating [2, 14] | Corn plant response rating (corn (Zea mays); [14]) | Plant response rating, Corn (corn (Zea mays); [15]) | Plant response rating, Oilseed Rape [5, 16] | Plant response rating, Johnsongrass [9, 15]
55: Waterhemp plant response rating [3, 20]
75: Plant response rating, Crabgrass, Large [7, 18]
25: Plant response rating, Corn (corn (Zea mays); [16])
98: Plant response rating, Waterhemp [3, 16] | Morningglory plant response rating [4, 19] | Plant response rating, Lambsquarters [8, 16]
100: Plant response rating, Kochia (kochia (Kochia scoparia); [10]) | Kochia plant response rating (kochia (Kochia scoparia); [11]) | Plant response rating, Kochia (kochia (Kochia scoparia); [13]) | Plant response rating, Waterhemp [3, 17] | Plant response rating, Waterhemp [3, 18] | Waterhemp plant response rating [3, 19] | Morningglory plant response rating [4, 14] | Plant response rating, Morningglory [4, 15] | Plant response rating, Morningglory [4, 16] | Morningglory plant response rating [4, 20] | Oilseed Rape plant response rating [5, 19] | Foxtail, Giant plant response rating [6, 19]
80: Plant response rating, Barnyardgrass [1, 10] | Kochia plant response rating (kochia (Kochia scoparia); [12]) | Waterhemp plant response rating [3, 14]
40: Plant response rating, Johnsongrass [9, 16]
0: Plant response rating, Corn (corn (Zea mays); [21]) | Plant response rating, Corn (corn (Zea mays); [17])
15: Oilseed Rape plant response rating [5, 20]
65: Corn plant response rating (corn (Zea mays); [19]) | Foxtail, Giant plant response rating [6, 20]
35: Plant response rating, Wheat [2, 15] | Plant response rating, Crabgrass, Large [7, 15] | Plant response rating, Johnsongrass [9, 18] | Johnsongrass plant response rating [9, 19]
50: Plant response rating, Oilseed Rape [5, 21]
5: Oilseed Rape plant response rating [5, 14] | Crabgrass, Large plant response rating [7, 14] | Plant response rating, Crabgrass, Large [7, 21] | Johnsongrass plant response rating [9, 14] | Plant response rating, Johnsongrass [9, 21] | Plant response rating, Johnsongrass [9, 17] | Johnsongrass plant response rating [9, 20]
45: Plant response rating, Oilseed Rape [5, 15] | Plant response rating, Crabgrass, Large [7, 16] | Plant response rating, Crabgrass, Large [7, 17]
95: Plant response rating, Morningglory [4, 18] | Crabgrass, Large plant response rating [7, 19] | Plant response rating, Lambsquarters [8, 15] | Plant response rating, Lambsquarters [8, 18] | Lambsquarters plant response rating [8, 19] | Lambsquarters plant response rating [8, 20]
90: Barnyardgrass plant response rating [1, 11] | Barnyardgrass plant response rating [1, 12] | Plant response rating, Barnyardgrass [1, 13] | Plant response rating, Wheat [2, 18] | Wheat plant response rating [2, 19] | Plant response rating, Morningglory [4, 17] | Plant response rating, Oilseed Rape [5, 17] | Plant response rating, Oilseed Rape [5, 18] | Plant response rating, Foxtail, Giant [6, 16]
20: Crabgrass, Large plant response rating [7, 20]
85: Plant response rating, Wheat [2, 17] | Plant response rating, Waterhemp [3, 15] | Plant response rating, Morningglory [4, 21] | Plant response rating, Foxtail, Giant [6, 15] | Plant response rating, Foxtail, Giant [6, 17] | Plant response rating, Foxtail, Giant [6, 18] | Lambsquarters plant response rating [8, 14] | Plant response rating, Lambsquarters [8, 21] | Plant response rating, Lambsquarters [8, 17]
30: Plant response rating, Wheat [2, 16] | Wheat plant response rating [2, 20] | Plant response rating, Corn (corn (Zea mays); [18]) | Corn plant response rating (corn (Zea mays); [20]) | Foxtail, Giant plant response rating [6, 14] | Plant response rating, Foxtail, Giant [6, 21]

CCC(=O)Oc1c(OC)nn(C)c(=O)c1-c1c(C)sc2ccc(Cl)cc12 [Compound 131]
35: Plant response rating, Morningglory [4, 21] | Plant response rating, Foxtail, Giant [6, 21]
0: Plant response rating, Barnyardgrass [1, 22] | Barnyardgrass plant response rating [1, 12] | Kochia plant response rating (kochia (Kochia scoparia); [12]) | Plant response rating, Wheat [2, 21] | Plant response rating, Wheat [2, 17] | Plant response rating, Corn (corn (Zea mays); [21]) | Plant response rating, Corn (corn (Zea mays); [17]) | Plant response rating, Crabgrass, Large [7, 21] | Plant response rating, Johnsongrass [9, 21] | Plant response rating, Johnsongrass [9, 17] | Plant response rating, Johnsongrass [9, 18]
5: Plant response rating, Corn (corn (Zea mays); [18])
15: Corn plant response rating (corn (Zea mays); [19])
70: Plant response rating, Lambsquarters [8, 17]
100: Waterhemp plant response rating [3, 19]
60: Plant response rating, Kochia (kochia (Kochia scoparia); [22]) | Plant response rating, Crabgrass, Large [7, 18] | Plant response rating, Lambsquarters [8, 21]
98: Plant response rating, Waterhemp [3, 17] | Plant response rating, Waterhemp [3, 18] | Foxtail, Giant plant response rating [6, 19]
20: Plant response rating, Barnyardgrass [1, 23] | Plant response rating, Kochia (kochia (Kochia scoparia); [24]) | Plant response rating, Wheat [2, 18] | Wheat plant response rating [2, 19] | Plant response rating, Oilseed Rape [5, 21] | Plant response rating, Crabgrass, Large [7, 17] | Johnsongrass plant response rating [9, 19]
40: Plant response rating, Barnyardgrass [1, 24] | Plant response rating, Oilseed Rape [5, 17]
90: Plant response rating, Foxtail, Giant [6, 18]
80: Plant response rating, Kochia (kochia (Kochia scoparia); [23]) | Oilseed Rape plant response rating [5, 19] | Crabgrass, Large plant response rating [7, 19]
95: Plant response rating, Waterhemp [3, 21] | Morningglory plant response rating [4, 19] | Lambsquarters plant response rating [8, 19]
55: Plant response rating, Morningglory [4, 17]
85: Plant response rating, Morningglory [4, 18] | Plant response rating, Oilseed Rape [5, 18] | Plant response rating, Foxtail, Giant [6, 17] | Plant response rating, Lambsquarters [8, 18]
